Results on one compound are retold here after patent US10266603B2, “Targeted therapy to restore radioactive iodine transport in thyroid cancer” (The Governors of the University of Alberta, priority 2014, dated 2019).

Type in all cases: cell-based, human
Experiment [1] relates to 8305C cell line. As to the kind of experiment: wound-healing assay (cellular migration), 8305C. The conditions noted are these: 8305C cell line expressing alpha subunit of PDGFR; after 24 and 42 hours; versus no crenolanib. On the procedure:
(§1) FIG. 8. The effect of PDGFRA blockade using a specific PDGFRA small molecule inhibitor on cellular migration using the wound-healing assay. In two separate cell lines that express the alpha subunit of PDGFR as shown in (A) 8305C cell line and BCPAP cell line in (B), the addition of crenolanib as a selective alpha inhibitor means that the percentage of open wound left after 24 and 42 hours is much higher because of slow the migration of the cells across the gap and this is highly significant. This illustrates the role of PDGFRA in mediating a more aggressive, dedifferentiated behavior for these tumors.

Experiment [2] relates to BCPAP cell line. Nature of the experiment: wound-healing assay (cellular migration), BCPAP. The settings on record: BCPAP cell line expressing alpha subunit of PDGFR; after 24 and 42 hours; versus no crenolanib. On the procedure: as §1
In experiment [3] the test system is patient derived papillary thyroid carcinoma primary tumors. Nature of the experiment: iodide transport in patient derived primary tumors. The conditions noted are these: patient derived PTC primary tumors; 72 hour period. The source says: FIG. 9. In the effect of PDGFRA blockade using small molecule inhibitors on iodide transport in patient derived papillary thyroid carcinoma primary tumors.

For `CC1(COc2ccc3c(c2)ncn3-c2ccc3cccc(N4CCC(N)CC4)c3n2)COC1` [crenolanib], the “percentage of open wound left” value in experiment [1] and in experiment [2] was “much higher” throughout. Moreover, the iodide uptake result in experiment [3] is on record as “significant increase in iodide uptake”.
